Our source for the EC50 and Ki values is US20160158377A1, “BCL-XL Inhibitory Compounds and Antibody Drug Conjugates Including the Same” (AbbVie Inc., priority 2014, published 2016).

Where two headings read alike, the source gives them in different places.

For assay [1], the system named is Molt-4 human acute lymphoblastic leukemia cells. Description: Molt-4 cell viability assay. As to conditions: 10% human serum, 48 hours, CellTiter-Glo, read-out: Molt-4 Viability EC50 (nM, 10% HS). It counts as cell-based. The protocol:
In one exemplary set of conditions, Molt-4 (ATCC, Manassas, Va.) human acute lymphoblastic leukemia cells were plated 12,500 cells per well in 384-well tissue culture plates (Corning, Corning, N.Y.) in a total volume of 25 μL tissue culture medium supplemented with 10% human serum (Sigma-Aldrich, St. Louis, Mo.) and treated with a 3-fold serial dilution of the compounds of interest from 10 μM to 0.0005 μM. Each concentration was tested in duplicate at least 3 separate times. The number of viable cells following 48 hours of compound treatment was determined using the CellTiter-Glo® Luminescent Cell Viability Assay according to the manufacturer's recommendations (Promega Corp., Madison, Wis.). Compounds were tested in the presence of 10% HS.
A general note: ATP-based viability assays read luminescence as a measure of living cells.

The next assay deals with Bcl-xL (Homo sapiens, UniProt Q07817). Description: TR-FRET Bcl-xL binding assay (competition with probe F-Bak). On the procedure:
For the assay, test compounds were serially diluted in DMSO starting at 50 μM (2× starting concentration; 10% DMSO) and 10 μL transferred into a 384-well plate. 10 μL of a protein/probe/antibody mix was then added to each well at final concentrations listed below:
The samples were then mixed on a shaker for 1 minute and incubated for an additional 2 hours at room temperature. For each assay plate, a probe/antibody and protein/antibody/probe mixture were included as a negative and a positive control, respectively. Fluorescence was measured on the Envision (Perkin Elmer) using a 340/35 nm excitation filter and 520/525 (F-Bak) and 495/510 nm (Tb-labeled anti-his antibody) emission filters. Dissociation constants (Ki) were determined using Wang's equation (Wang, 1995, FEBS Lett. 360:111-114). The TR-FRET assay can be performed in the presence of varying concentrations of human serum (HS) or fetal bovine serum (FBS). Compounds were tested both without HS and in the presence of 1% HS.
In general terms: Time-resolved FRET reads energy transfer from a long-lived donor to a nearby acceptor.

[2] abbreviates: in the presence of 1% human serum (HS), read-out: Bcl-xL Binding Ki (nM, 1% HS).
The mark [3] stands for this setting: without human serum, read-out: Bcl-xL Binding Ki.

By EC50 is commonly meant the concentration at which the effect is half-maximal. One may read the Ki as a dissociation constant, usually derived from enzyme kinetics or from competition with a known ligand.

Bcl-xL, sequence (Q07817 whole entry): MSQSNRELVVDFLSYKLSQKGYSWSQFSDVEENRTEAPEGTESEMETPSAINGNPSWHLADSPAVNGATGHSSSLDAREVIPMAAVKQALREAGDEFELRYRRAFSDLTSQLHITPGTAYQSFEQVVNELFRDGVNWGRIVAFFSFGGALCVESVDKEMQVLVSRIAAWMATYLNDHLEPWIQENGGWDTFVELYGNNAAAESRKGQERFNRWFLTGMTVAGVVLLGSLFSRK

Consider `CNCCOC12CC3(C)CC(C)(CC(Cn4ncc(-c5ccc(-c6ccc7cccc(C(=O)Nc8nc9cccnc9s8)c7c6)nc5C(=O)O)c4C)(C3)C1)C2` [Compound W3.07, 3-[1-({3,5-dimethyl-7-[2-(methylamino)ethoxy]tricyclo[3.3.1.1^3,7]dec-1-yl}methyl)-5-methyl-1H-pyrazol-4-yl]-6-[8-([1,3]thiazolo[5,4-b]pyridin-2-ylcarbamoyl)naphthalen-2-yl]pyridine-2-carboxylic acid], for which the EC50 in assay [1] came out at 432 nM. The figures for the Ki at Bcl-xL (setting [2]) and on Bcl-xL (setting [3]) were 0.29 nM and < 0.001 nM, respectively.

In the case of `CNCCOC12CC3(C)CC(C)(CC(Cn4ncc(-c5ccc(-c6ccc7cccc(C(=O)Nc8nc9ncccc9s8)c7c6)nc5C(=O)O)c4C)(C3)C1)C2` [Compound W3.08, 3-[1-({3,5-dimethyl-7-[2-(methylamino)ethoxy]tricyclo[3.3.1.1^3,7]dec-1-yl}methyl)-5-methyl-1H-pyrazol-4-yl]-6-[8-([1,3]thiazolo[4,5-b]pyridin-2-ylcarbamoyl)naphthalen-2-yl]pyridine-2-carboxylic acid], the EC50 in assay [1] came out at 40 nM. Also, the values for the Ki at Bcl-xL (setting [2]) and at Bcl-xL (setting [3]) were 0.013 nM and < 0.001 nM, respectively.

Regarding `CNCCOC12CC3(C)CC(C)(CC(Cn4ncc(-c5ccc(N6CCc7c(OC)ccc(C(=O)Nc8nc9ccccc9s8)c7C6)nc5C(=O)O)c4C)(C3)C1)C2` [Compound W3.09, 6-[8-(1,3-benzothiazol-2-ylcarbamoyl)-5-methoxy-3,4-dihydroisoquinolin-2(1H)-yl]-3-[1-({3,5-dimethyl-7-[2-(methylamino)ethoxy]tricyclo[3.3.1.1^3,7]dec-1-yl}methyl)-5-methyl-1H-pyrazol-4-yl]pyridine-2-carboxylic acid], the EC50 in assay [1] was 3.8 nM. The results for the Ki on Bcl-xL (setting [2]) and on Bcl-xL (setting [3]) were 0.14 nM and < 0.001 nM, respectively.

Regarding `CNCCOC12CC3(C)CC(C)(CC(Cn4ncc(-c5ccc(-c6ccc7nccc(C(=O)Nc8nc9ccccc9s8)c7c6)nc5C(=O)O)c4C)(C3)C1)C2` [Compound W3.11, 6-[4-(1,3-benzothiazol-2-ylcarbamoyl)quinolin-6-yl]-3-[1-({3,5-dimethyl-7-[2-(methylamino)ethoxy]tricyclo[3.3.1.1^3,7]dec-1-yl}methyl)-5-methyl-1H-pyrazol-4-yl]pyridine-2-carboxylic acid], the EC50 in assay [1] was determined as 34.3 nM. Besides, the results for the Ki at Bcl-xL (setting [2]) and at Bcl-xL (setting [3]) were 0.94 nM and < 0.001 nM, respectively.

With `COCCNCCOC12CC3(C)CC(C)(CC(Cn4ncc(-c5ccc(N6CCc7c(OC)ccc(C(=O)Nc8nc9ccccc9s8)c7C6)nc5C(=O)O)c4C)(C3)C1)C2` [Compound W3.12, 6-[8-(1,3-benzothiazol-2-ylcarbamoyl)-5-methoxy-3,4-dihydroisoquinolin-2(1H)-yl]-3-{1-[(3-{2-[(2-methoxyethyl)amino]ethoxy}-5,7-dimethyltricyclo[3.3.1.1^3,7]dec-1-yl)methyl]-5-methyl-1H-pyrazol-4-yl}pyridine-2-carboxylic acid], the EC50 in assay [1] came to 2.6 nM. The figures for the Ki on Bcl-xL (setting [2]) and at Bcl-xL (setting [3]) were 0.051 nM and 0.0042 nM, respectively.

`Cc1c(-c2ccc(N3CCc4c(C#N)ccc(C(=O)Nc5nc6ccccc6s5)c4C3)nc2C(=O)O)cnn1CC12CC3(C)CC(C)(C1)CC(OCCN)(C3)C2` [Compound W3.13, 3-(1-{[3-(2-aminoethoxy)-5,7-dimethyltricyclo[3.3.1.1^3,7]dec-1-yl]methyl}-5-methyl-1H-pyrazol-4-yl)-6-[8-(1,3-benzothiazol-2-ylcarbamoyl)-5-cyano-3,4-dihydroisoquinolin-2(1H)-yl]pyridine-2-carboxylic acid]: the EC50 in assay [1] amounted to 2290 nM. Also, the Ki on Bcl-xL (setting [2]) was determined as 6.8 nM; at Bcl-xL (setting [3]), 0.013 nM.

For the molecule `COCCNCCOC12CC3(C)CC(C)(CC(Cn4ncc(-c5ccc(-c6ccc7c(c6)N(C(=O)Nc6nc8ccccc8s6)CCC7)nc5C(=O)O)c4C)(C3)C1)C2` [Compound W3.14, 6-[1-(1,3-benzothiazol-2-ylcarbamoyl)-1,2,3,4-tetrahydroquinolin-7-yl]-3-{1-[(3-{2-[(2-methoxyethyl)amino]ethoxy}-5,7-dimethyltricyclo[3.3.1.1^3,7]dec-1-yl)methyl]-5-methyl-1H-pyrazol-4-yl}pyridine-2-carboxylic acid], in assay [1], the EC50 amounted to 1.8 nM. Besides, the values for the Ki on Bcl-xL (setting [2]) and on Bcl-xL (setting [3]) were 0.014 nM and < 0.001 nM, respectively.

As to `COCCNCCOC12CC3(C)CC(C)(CC(Cn4ncc(-c5ccc(-c6ccc7cccc(C(=O)Nc8nc9ccccc9s8)c7c6)nc5C(=O)O)c4C)(C3)C1)C2` [Compound W3.15, 6-[8-(1,3-benzothiazol-2-ylcarbamoyl)naphthalen-2-yl]-3-{1-[(3-{2-[(2-methoxyethyl)amino]ethoxy}-5,7-dimethyltricyclo[3.3.1.1^3,7]dec-1-yl)methyl]-5-methyl-1H-pyrazol-4-yl}pyridine-2-carboxylic acid], in assay [1], the EC50 was 2.5 nM. For the same molecule, the Ki at Bcl-xL (setting [2]) is 0.1 nM; at Bcl-xL (setting [3]), < 0.001 nM.

In the case of `Cc1c(-c2ccc(N3CCc4cccc(C(=O)Nc5nc6ccccc6s5)c4C3)nc2C(=O)O)cnn1CC12CC3(C)CC(C)(C1)CC(OCCNC1COC1)(C3)C2` [Compound W3.16, 6-[8-(1,3-benzothiazol-2-ylcarbamoyl)-3,4-dihydroisoquinolin-2(1H)-yl]-3-[1-({3,5-dimethyl-7-[2-(oxetan-3-ylamino)ethoxy]tricyclo[3.3.1.1^3,7]dec-1-yl}methyl)-5-methyl-1H-pyrazol-4-yl]pyridine-2-carboxylic acid], in assay [1], the EC50 came to 3.7 nM. The Ki is 0.14 nM at Bcl-xL (setting [2]) and < 0.001 nM at Bcl-xL (setting [3]).

In the case of `Cc1c(-c2ccc(N3CCc4cccc(C(=O)Nc5nc6ccccc6s5)c4C3)nc2C(=O)O)cnn1CC12CC3(C)CC(C)(C1)CC(OCCNCCS(N)(=O)=O)(C3)C2` [Compound W3.18, 6-[8-(1,3-benzothiazol-2-ylcarbamoyl)-3,4-dihydroisoquinolin-2(1H)-yl]-3-{1-[(3,5-dimethyl-7-{2-[(2-sulfamoylethyl)amino]ethoxy}tricyclo[3.3.1.1^3,7]dec-1-yl)methyl]-5-methyl-1H-pyrazol-4-yl}pyridine-2-carboxylic acid], the EC50 in assay [1] worked out at 14 nM. The figures for the Ki at Bcl-xL (setting [2]) and on Bcl-xL (setting [3]) were 0.19 nM and 0.038 nM, respectively.

Regarding `Cc1c(-c2ccc(N3CCc4scc(C(=O)Nc5nc6ccccc6s5)c4C3)nc2C(=O)O)cnn1CC12CC3(C)CC(C)(C1)CC(OCCN)(C3)C2` [Compound W3.19, 3-(1-{[3-(2-aminoethoxy)-5,7-dimethyltricyclo[3.3.1.1^3,7]dec-1-yl]methyl}-5-methyl-1H-pyrazol-4-yl)-6-[3-(1,3-benzothiazol-2-ylcarbamoyl)-6,7-dihydrothieno[3,2-c]pyridin-5(4H)-yl]pyridine-2-carboxylic acid], the EC50 in assay [1] is > 10000 nM. The Ki on Bcl-xL (setting [2]) turned out to be 309 nM; at Bcl-xL (setting [3]), 21 nM.

As to `Cc1c(-c2ccc(N3CCn4c(C(F)(F)F)nc(C(=O)Nc5nc6ccccc6s5)c4C3)nc2C(=O)O)cnn1CC12CC3(C)CC(C)(C1)CC(OCCN)(C3)C2` [Compound W3.20, 3-(1-{[3-(2-aminoethoxy)-5,7-dimethyltricyclo[3.3.1.1^3,7]dec-1-yl]methyl}-5-methyl-1H-pyrazol-4-yl)-6-[1-(1,3-benzothiazol-2-ylcarbamoyl)-3-(trifluoromethyl)-5,6-dihydroimidazo[1,5-a]pyrazin-7(8H)-yl]pyridine-2-carboxylic acid], in assay [1], the EC50 worked out at 18.2 nM. Further, the Ki is 0.014 nM at Bcl-xL (setting [2]) and < 0.01 nM at Bcl-xL (setting [3]).
